The record followed here is US20240300927A1, “AMIDES AS CBL-B INHIBITORS” (Genentech, Inc., priority 2021, published 2024).

In series [1] the test system is PBMCs. The series can be described thus: PBMC IL-2 assay. The class given is cell-based. To be noted: read-out: PBMC IL-2 Cell EC50. As for the experimental part:
Immune response to compounds described herein can be assessed via a PBMC IL-2 assay, conducted according to the following protocol. PBMCs (#A19K379053, A19K261022; TPCS) are thawed into complete medium: 1640 medium (#2085568; Gibco), 10% FBS (#SH30084.03; HyClone), and 1× pen/strep. Compounds are 3-fold serially diluted in DMSO in a 384-well polypropylene plate (#P-05525-BC; Labcyte) using the Tecan EVO to generate a source plate with 10 concentrations of each compound, top concentration=4 mM. Compounds are dispensed into a 96-well plate (#6005680; PerkinElmer) using a Labcyte Echo; final dispensed volume of each control and compound is 1000 nL (final DMSO=0.5%). After recovery overnight, cells are seeded at 2×10^5 cells/well into 96-well plates containing compounds and incubated at 37° C., 5% CO2 for 30 min. Cells are stimulated by adding 20 μL/well 1/10 TransAct (#130-111-160; Miltenyi) diluted in complete medium, placed on a shaker for 2 min at 600 rpm, and incubated for 24 h at 37° C., 5% CO2. Plates are centrifuged at 1200 rpm for 5 min and 120 μL cell supernatant collected. Supernatants are diluted 10-fold and IL-2 concentrations of each sample are determined using the IL-2 MSD kit (#K151AHB-4; MSD) per the manufacturer's instructions.

Series [2] has as its target Cbl-b (Homo sapiens (Human), UniProt Q13191). The series can be described thus: Cbl-b LCK Ub TR-FRET assay (Cbl-b Lck HTRF). The class given is biochemical. In short, it runs like this:
(§1)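 Biotin-Cbl-b (16 nM) or biotin-c-Cbl (12 nM) at 2× preincubated with compound 60 min, then His-LCK (120 nM), 1 mM ATP and MgCl2 (2× mix) added for 90 min at RT. Buffer: HEPES pH 7.0, DTT. UBE2D2–HA-ubiquitin transfer read by TR-FRET (665/615 nm); IC50 versus no-LCK and DMSO controls, 10-point dilutions.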
(In general: TR-FRET usually uses a lanthanide donor and a delayed reading to cut background.)

Series [3] is described as follows: In vitro plasma protein binding, human. Format: in vitro ADME. To be noted: pooled human plasma, read-out: PPB % (H/R/M) (converted). The procedure: In vitro plasma protein binding (n=2) was determined in pooled mouse, rat, and human plasma (Bioreclamation, Inc., Hicksville, NY) by equilibrium dialysis using a Rapid Equilibrium Dialysis (RED) device (Pierce Biotechnology/Thermo Fisher Scientific; Rockford, IL) with a molecular weight cut-off of 8000 Daltons. Test compounds were added to plasma. Plasma samples were equilibriated with phosphate-buffered saline at 37° C. for 4 hours. Compound concentrations in post-dialysis plasma and buffer samples were measured by LC-MS/MS. The percent unbound fraction in plasma for each compound was calculated by dividing the compound concentration in the post-dialysis buffer by that measured in the post-dialysis plasma and multiplying by 100%.

The nature of series [4]: Liver microsomes metabolic stability, rat. Format: in vitro ADME. The procedure: Metabolic stability of test compounds was evaluated in pooled rat, mouse, dog, and cynomolgus monkey liver microsomes (BD Biosciences, San Jose, CA). The incubation conditions were as follows: 1 μM of the tested compound, 1 mM NADPH, 0.5 mg/mL microsomal protein in 0.1 M potassium phosphate buffer (pH 7.4). Following a 5-minute pre-incubation period, the enzymatic reactions were initiated by the addition of NADPH and test compound to the microsomes diluted in phosphate buffered saline. The mixtures were incubated at 37° C. for 0, 20, 40, and 60 min.
Compound concentrations were assessed by LC-MS/MS. Intrinsic clearance based upon microsomal stability data was determined using a substrate depletion method and scaled to hepatic clearance using the well-stirred model (Obach, R. S.; Baxter, J. G.; Liston, T. E.; Silber, B. M.; Jones, B. C.; MacIntyre, F.; Rance, D. J.; Wastall, P., “The Prediction of Human Pharmacokinetic Parameters from Preclinical and in vitro Metabolism Data”, J. Pharmacol. Exp. Ther., (1997), 283 (1), 46-58).

Series [5] in a line: Mouse PK. The class given is in vivo.
For series [6], the target named is c-Cbl (Homo sapiens (Human), UniProt P22681). The series can be described thus: C-cbl LCK Ub TR-FRET assay (C-cbl Lck HTRF). The class given is biochemical. Summed up:
as §1

Series [7] can be described thus: Kinetic solubility. Format: physicochemical. To be noted: kinetic from dmso stock.

In brackets after ≈: the same amount, converted by molar mass. Where two headings read alike, the source gives them in different places.

In general, EC50 refers to the midpoint of the concentration-response curve. The IC50 is the concentration that inhibits the measured activity by half.

Sequence of Cbl-b (Q13191 40-426): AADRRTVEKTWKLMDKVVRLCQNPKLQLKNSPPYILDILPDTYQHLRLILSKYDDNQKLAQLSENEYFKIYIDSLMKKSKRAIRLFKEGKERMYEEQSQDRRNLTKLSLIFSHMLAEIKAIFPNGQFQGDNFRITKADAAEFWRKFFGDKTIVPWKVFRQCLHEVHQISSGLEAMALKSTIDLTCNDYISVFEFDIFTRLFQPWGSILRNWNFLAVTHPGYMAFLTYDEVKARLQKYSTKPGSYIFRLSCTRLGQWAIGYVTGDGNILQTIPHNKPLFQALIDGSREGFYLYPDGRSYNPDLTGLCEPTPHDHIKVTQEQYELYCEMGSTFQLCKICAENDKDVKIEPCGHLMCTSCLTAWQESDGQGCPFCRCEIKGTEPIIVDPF
Sequence of c-Cbl (P22681 47-435): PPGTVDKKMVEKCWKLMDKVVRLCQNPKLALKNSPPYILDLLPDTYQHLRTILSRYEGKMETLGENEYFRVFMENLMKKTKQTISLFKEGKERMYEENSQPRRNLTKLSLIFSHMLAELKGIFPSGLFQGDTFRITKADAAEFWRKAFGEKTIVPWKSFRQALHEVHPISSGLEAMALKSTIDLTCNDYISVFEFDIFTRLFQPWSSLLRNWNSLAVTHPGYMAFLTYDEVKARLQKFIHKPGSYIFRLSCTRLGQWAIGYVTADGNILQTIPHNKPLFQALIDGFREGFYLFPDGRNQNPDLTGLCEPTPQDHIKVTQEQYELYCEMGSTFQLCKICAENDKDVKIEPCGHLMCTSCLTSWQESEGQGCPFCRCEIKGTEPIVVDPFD

For `CC(C)[C@H]1CN(C)CCN1Cc1cc(C(=O)Nc2cccc(C3(Cc4nncn4C)CC(F)(F)C3)c2)nc(C2CC2)c1` [Compound 224, (S)-6-cyclopropyl-N-(3-(3,3-difluoro-1-((4-methyl-4H-1,2,4-triazol-3-yl)methyl)cyclobutyl)phenyl)-4-((2-isopropyl-4-methylpiperazin-1-yl)methyl)picolinamide], the EC50 in series [1] was 32 nM. The “(fold-selectivity)” value in series [2] (Cbl-b and C-Cbl selectivity, Lck HTRF) is “(0.66x)”. The concentration for half-maximal inhibition (IC50) in series [2] (Table 4 comparative data, read-out: Lck IC50) worked out at 7.5 nM; in series [2] (read-out: Cbl-b Lck HTRF IC50), 7.5 nM; in series [6], 5 nM. Besides, in series [2] (selectivity, Table 4), the “Lck IC50 (select.)” value turned out to be 0.68 x. Also, in series [3], the fraction unbound at 4 h is 0.14. Besides, the “LM (H/R/M/D/C)” value in series [4] was determined as 38. In addition, in series [5], the “Mouse PK unbound CLp” value was “(unbound CLp 683)”. Moreover, the clearance in series [5] (plasma, intravenous, read-out: Mouse PK CLp) came to 41 mL/min/kg. The bioavailability in series [5] (plasma, oral, read-out: Mouse PK F %) was determined as 3.4%. For the same compound, the solubility is 8.5 µM (≈ 4.91 µg/mL) in series [7] (value in parentheses, not explained, read-out: Kinet. Solub. (uM), second value in parentheses) and 8.3 µM (≈ 4.8 µg/mL) in series [7] (read-out: Kinet. Solub.).
